Publication PMC9127750, “Structure-based design of CDC42 effector interaction inhibitors for the treatment of cancer” (Cell reports, 2022)
Where “and” joins values, the source holds several entries; their conditions need not be identical. Equal entries are not always repeated.

Test system: WM3248 melanoma cells, 486 antibodies
Assay: Reverse phase protein arrays (RPPA)
Type: cell-based, Human
From the text: Pellets were snap frozen in liquid nitrogen and shipped to MD Anderson Cancer Center core RPPA facility for RPPA analysis (Table S5). Three biological replicates for each sample were generated.
Nomenclatures on the RPPA heatmaps: name_of_antibody.species_of_antibody.status_of_antibody. V - antibody validated; C - validation of antibody in progress; Q - antibody nonspecific; E – under evaluation; antibodies raised in M - mouse, G - goat, R - rabbit, or T - rat.

[1] = level 10 normalized to 0, mean of 3
[2] = level 10 normalized to 0, single replicates

CN(C)c1cccc(Nc2cc(-c3ccccc3)nc(C3CCNCC3)n2)c1 [ARN22089, N1,N1-dimethyl-N3-(6-phenyl-2-(piperidin-4-yl)pyrimidin-4-yl)benzene-1,3-diamine]
XIAP.R.C Norm_10 Average [1]: 0.978 | XPA.M.V Norm_10 Average [1]: 0.978 | XPF.R.C Norm_10 Average [1]: 0.977 | YAP.R.C Norm_10 Average [1]: 1.029 | YB1_pS102.R.V Norm_10 Average [1]: 0.937 | YES1.R.V Norm_10 Average [1]: 1.017 | YTHDF3.R.C Norm_10 Average [1]: 1.101 | ZAP.70.R.V Norm_10 Average [1]: 0.957 | ZEB1.R.V Norm_10 Average [1]: 0.964 | TSC1.R.C Norm_10_1 to Norm_10_3 [2]: 0.905 and 0.842 | TTF1.R.V Norm_10_1 to Norm_10_3 [2]: 1.022 and 0.970 and 1.241 | TUFM.R.V Norm_10_1 to Norm_10_3 [2]: 0.423 and 1.882 and 1.360 | Tuberin.R.V Norm_10_1 to Norm_10_3 [2]: 1.169 and 0.526 and 0.811 | Tuberin_pT1462.R.V Norm_10_1 to Norm_10_3 [2]: 1.492 and 0.717 and 0.984 | Twist.M.C Norm_10_1 to Norm_10_3 [2]: 1.114 and 1.030 | Tyro3.R.V Norm_10_1 to Norm_10_3 [2]: 1.080 and 1.777 and 1.302 | U.Histone.H2B.R.C Norm_10_1 to Norm_10_3 [2]: 0.871 and 0.726 | UBAC1.R.V Norm_10_1 to Norm_10_3 [2]: 0.932 and 1.030 and 1.078 | UBQLN4.M.C Norm_10_1 to Norm_10_3 [2]: 0.984 and 0.918 and 0.980 | UGT1A.M.V Norm_10_1 to Norm_10_3 [2]: 1.017 and 1.128 and 1.006 | ULK1_pS757.R.C Norm_10_1 to Norm_10_3 [2]: 1.125 and 0.823 and 0.899 | UQCRC2.M.C Norm_10_1 to Norm_10_3 [2]: 0.945 and 1.144 and 1.246 | UVRAG.R.C Norm_10_1 to Norm_10_3 [2]: 1.050 and 0.851 and 0.904 | VASP.R.V Norm_10_1 to Norm_10_3 [2]: 0.815 and 0.894 | VAV1.R.C Norm_10_1 to Norm_10_3 [2]: 1.035 and 0.844 and 0.890 | VEGFR.2.R.V Norm_10_1 to Norm_10_3 [2]: 0.901 and 0.958 and 1.012 | VEGFR.2_pY1175.R.C Norm_10_1 to Norm_10_3 [2]: 0.930 and 0.993 | VHL.EPPK1.M.C Norm_10_1 to Norm_10_3 [2]: 0.587 and 1.522 and 0.982 | VHL.R.C Norm_10_1 to Norm_10_3 [2]: 0.900 and 0.987 | Vinculin.M.V Norm_10_1 to Norm_10_3 [2]: 0.829 and 1.085 and 1.051 | WIPI1.R.C Norm_10_1 to Norm_10_3 [2]: 1.210 and 1.510 and 1.234 | WIPI2.R.C Norm_10_1 to Norm_10_3 [2]: 1.209 and 0.707 and 0.915 | WTAP.R.V Norm_10_1 to Norm_10_3 [2]: 0.900 and 1.764 and 1.008 | Wee1.R.C Norm_10_1 to Norm_10_3 [2]: 0.851 and 0.833 and 1.061 | Wee1_pS642.R.C Norm_10_1 to Norm_10_3 [2]: 0.901 and 0.776 and 1.023 | XBP.1.G.C Norm_10_1 to Norm_10_3 [2]: 0.989 and 1.187 and 1.403 | XIAP.R.C Norm_10_1 to Norm_10_3 [2]: 1.022 and 1.000 | XPA.M.V Norm_10_1 to Norm_10_3 [2]: 1.064 | XPF.R.C Norm_10_1 to Norm_10_3 [2]: 0.948 and 0.944 | XRCC1.R.C Norm_10_1 to Norm_10_3 [2]: 0.931 and 1.213 | YAP.R.C Norm_10_1 to Norm_10_3 [2]: 0.955 and 1.252 and 0.879 | YAP_pS127.R.V Norm_10_1 to Norm_10_3 [2]: 0.913 and 1.139 and 0.796 | YB1_pS102.R.V Norm_10_1 to Norm_10_3 [2]: 0.840 and 1.032 | YES1.R.V Norm_10_1 to Norm_10_3 [2]: 1.000 and 0.982 | YTHDF2.R.V Norm_10_1 to Norm_10_3 [2]: 1.206 and 1.258 | YTHDF3.R.C Norm_10_1 to Norm_10_3 [2]: 1.009 and 1.186 and 1.108 | ZAP.70.R.V Norm_10_1 to Norm_10_3 [2]: 1.012 and 0.977 and 0.883 | ZEB1.R.V Norm_10_1 to Norm_10_3 [2]: 0.854 and 1.114 and 0.924 | HLA.DQA1.R.V Norm_10 Average (level 10 vs 0): 0.993 | HLA.DR.DP.DQ.DX.R.C Norm_10 Average (level 10 vs 0): 1.057 | HMHA1.R.V Norm_10 Average (level 10 vs 0): 0.922 | HNRNPK.R.V Norm_10 Average (level 10 vs 0): 1.030 | HSP27.M.C Norm_10 Average (level 10 vs 0): 0.958 | HSP27_pS82.R.V Norm_10 Average (level 10 vs 0): 0.916 | HSP60.R.V Norm_10 Average (level 10 vs 0): 0.926 | HSP70.R.C Norm_10 Average (level 10 vs 0): 0.973 | Hexokinase.I.R.C Norm_10 Average (level 10 vs 0): 1.225 | Hexokinase.II.R.V Norm_10 Average (level 10 vs 0): 1.128 | Hif.1αR.C Norm_10 Average (level 10 vs 0): 1.156 | Histone.H3.R.V Norm_10 Average (level 10 vs 0): 0.957 | IDO.R.C Norm_10 Average (level 10 vs 0): 0.957 | IGF1R_pY1135_Y1136.R.V Norm_10 Average (level 10 vs 0): 0.918 | IGFBP2.R.V Norm_10 Average (level 10 vs 0): 0.935 | IGFBP3.M.V Norm_10 Average (level 10 vs 0): 0.971 | IGFRb.R.C Norm_10 Average (level 10 vs 0): 0.953 | IL.6.R.C Norm_10 Average (level 10 vs 0): 0.924 | IMP3.R.C Norm_10 Average (level 10 vs 0): 0.953 | INPP4b.R.C Norm_10 Average (level 10 vs 0): 1.029 | IR.b.R.C Norm_10 Average (level 10 vs 0): 0.981 | IRF.1.R.V Norm_10 Average (level 10 vs 0): 0.874 | IRF.3.R.V Norm_10 Average (level 10 vs 0): 0.967 | IRS1.R.V Norm_10 Average (level 10 vs 0): 0.929 | IRS2.R.C Norm_10 Average (level 10 vs 0): 1.033 | JAB1.M.C Norm_10 Average (level 10 vs 0): 1.009 | JNK2.R.V Norm_10 Average (level 10 vs 0): 2.307 | JNK_pT183_Y185.R.C Norm_10 Average (level 10 vs 0): 0.955 | Jagged1.R.V Norm_10 Average (level 10 vs 0): 0.936 | Jak2.R.V Norm_10 Average (level 10 vs 0): 0.959 | KAP1.R.V Norm_10 Average (level 10 vs 0): 1.103 | KEAP1.R.V Norm_10 Average (level 10 vs 0): 1.017 | LAD1.R.V Norm_10 Average (level 10 vs 0): 0.908 | LC3A.B.R.C Norm_10 Average (level 10 vs 0): 1.064
